Measurements as given in the NIST ThermoML archive (doi:10.1016/j.jct.2015.05.001).
“And” between values parts separate entries of the source, which are not always exact repeats. Equal values may be shown once.

Experiments:
[1] = for Triple point temperature: DTA
[2] = Molar enthalpy of transition or fusion; conditions: Crystal; DSC

Brc1ccc2c(c1)Cc1cc(Br)ccc1-2 [2,7-dibromofluorene]
[1], Crystal
Conditions	vapor or sublimation pressure
361.15 K, Calculated from knudsen effusion weight loss	9.5e-05 kPa and 9.7e-05 kPa and 9.6e-05 kPa
363.14 K, Calculated from knudsen effusion weight loss	0.000119 kPa and 0.000118 kPa
365.11 K, Calculated from knudsen effusion weight loss	0.000147 kPa and 0.000148 kPa and 0.000144 kPa
367.16 K, Calculated from knudsen effusion weight loss	0.000177 kPa and 0.000179 kPa
369.11 K, Calculated from knudsen effusion weight loss	0.000218 kPa and 0.000214 kPa and 0.000215 kPa
371.1 K, Calculated from knudsen effusion weight loss	0.000267 kPa and 0.000261 kPa
373.15 K, Calculated from knudsen effusion weight loss	0.000318 kPa and 0.000315 kPa and 0.000319 kPa
375.12 K, Calculated from knudsen effusion weight loss	0.000392 kPa and 0.000388 kPa and 0.000382 kPa
377.12 K, Calculated from knudsen effusion weight loss	0.000472 kPa and 0.000478 kPa and 0.000463 kPa
379.15 K, Calculated from knudsen effusion weight loss	0.000556 kPa and 0.00056 kPa and 0.000563 kPa
381.12 K, Calculated from knudsen effusion weight loss	0.000678 kPa and 0.000687 kPa and 0.000674 kPa
382.23 K, Closed cell (Static) method	0.000732 kPa
383.12 K, Calculated from knudsen effusion weight loss	0.000809 kPa and 0.000827 kPa and 0.000832 kPa
384.26 K, Closed cell (Static) method	0.000874 kPa
386.08 K, Closed cell (Static) method	0.001029 kPa
388.21 K, Closed cell (Static) method	0.001254 kPa
390.11 K, Closed cell (Static) method	0.001472 kPa
392.14 K, Closed cell (Static) method	0.001751 kPa
394.16 K, Closed cell (Static) method	0.002104 kPa
396.08 K, Closed cell (Static) method	0.002489 kPa
398.07 K, Closed cell (Static) method	0.002922 kPa

Conditions	Triple point temperature [K]
[1], Crystal	438.79

Conditions	Molar enthalpy of transition or fusion [kcal/mol]
[2]	5.43

Brc1ccc2c(c1)Cc1ccccc1-2 [2-bromofluorene]
[1]
Conditions	vapor or sublimation pressure
327.17 K, Crystal, Calculated from knudsen effusion weight loss	0.000118 kPa and 0.000119 kPa
329.13 K, Crystal, Calculated from knudsen effusion weight loss	0.00015 kPa and 0.000148 kPa
331.09 K, Crystal, Calculated from knudsen effusion weight loss	0.000186 kPa and 0.000183 kPa
333.16 K, Crystal, Calculated from knudsen effusion weight loss	0.000223 kPa and 0.000225 kPa and 0.000229 kPa
335.14 K, Crystal, Calculated from knudsen effusion weight loss	0.00028 kPa and 0.000275 kPa and 0.000279 kPa
337.11 K, Crystal, Calculated from knudsen effusion weight loss	0.000347 kPa and 0.000346 kPa and 0.000343 kPa
339.16 K, Crystal, Calculated from knudsen effusion weight loss	0.000417 kPa and 0.000416 kPa and 0.000425 kPa
341.14 K, Crystal, Calculated from knudsen effusion weight loss	0.000515 kPa and 0.000501 kPa
343.1 K, Crystal, Calculated from knudsen effusion weight loss	0.000627 kPa and 0.000626 kPa and 0.000634 kPa
345.16 K, Crystal, Calculated from knudsen effusion weight loss	0.000749 kPa and 0.000747 kPa and 0.000758 kPa
347.09 K, Crystal, Calculated from knudsen effusion weight loss	0.000928 kPa and 0.000929 kPa and 0.000909 kPa
349.09 K, Crystal, Calculated from knudsen effusion weight loss	0.00112 kPa and 0.001125 kPa and 0.001127 kPa
350.8 K, Crystal, Closed cell (Static) method	0.001323 kPa
352.79 K, Crystal, Closed cell (Static) method	0.001593 kPa
354.74 K, Crystal, Closed cell (Static) method	0.001921 kPa
356.73 K, Crystal, Closed cell (Static) method	0.002274 kPa
358.7 K, Crystal, Closed cell (Static) method	0.002726 kPa
360.67 K, Crystal, Closed cell (Static) method	0.003206 kPa
362.65 K, Crystal, Closed cell (Static) method	0.003848 kPa
364.63 K, Crystal, Closed cell (Static) method	0.00452 kPa
366.6 K, Crystal, Closed cell (Static) method	0.005367 kPa
368.56 K, Crystal, Closed cell (Static) method	0.006271 kPa
370.56 K, Crystal, Closed cell (Static) method	0.007492 kPa
372.53 K, Crystal, Closed cell (Static) method	0.008716 kPa
374.47 K, Metastable liquid, Closed cell (Static) method	0.012 kPa
374.5 K, Crystal, Closed cell (Static) method	0.0103 kPa
376.47 K, Crystal, Closed cell (Static) method	0.01202 kPa
376.47 K, Metastable liquid, Closed cell (Static) method	0.01362 kPa
378.44 K, Crystal, Closed cell (Static) method	0.01403 kPa
378.44 K, Metastable liquid, Closed cell (Static) method	0.01541 kPa
380.4 K, Crystal, Closed cell (Static) method	0.01634 kPa
380.4 K, Metastable liquid, Closed cell (Static) method	0.01749 kPa
382.39 K, Metastable liquid, Closed cell (Static) method	0.01992 kPa
384.36 K, Metastable liquid, Closed cell (Static) method	0.02244 kPa
386.34 K, Metastable liquid, Closed cell (Static) method	0.02529 kPa
388.31 K, Metastable liquid, Closed cell (Static) method	0.02854 kPa
390.28 K, Closed cell (Static) method, Liquid	0.03201 kPa
392.25 K, Closed cell (Static) method, Liquid	0.03602 kPa
394.21 K, Closed cell (Static) method, Liquid	0.04022 kPa
396.18 K, Closed cell (Static) method, Liquid	0.04506 kPa
398.13 K, Closed cell (Static) method, Liquid	0.05046 kPa
400.11 K, Closed cell (Static) method, Liquid	0.05625 kPa
402.06 K, Closed cell (Static) method, Liquid	0.0628 kPa
404.05 K, Closed cell (Static) method, Liquid	0.06988 kPa
405.99 K, Closed cell (Static) method, Liquid	0.0774 kPa
407.97 K, Closed cell (Static) method, Liquid	0.08499 kPa
409.95 K, Closed cell (Static) method, Liquid	0.0938 kPa
411.9 K, Closed cell (Static) method, Liquid	0.1045 kPa
413.88 K, Closed cell (Static) method, Liquid	0.1164 kPa
415.84 K, Closed cell (Static) method, Liquid	0.1264 kPa
417.81 K, Closed cell (Static) method, Liquid	0.1398 kPa
419.77 K, Closed cell (Static) method, Liquid	0.1534 kPa

Conditions	Triple point temperature [K]
[1], Crystal	387.39

Conditions	Molar enthalpy of transition or fusion [kcal/mol]
[2]	4.07
